Experimental data: patent publication US20130244875A1, “METHODS AND COMPOSITIONS FOR IMPROVING PLANT HEALTH” (priority 2006, published 2013)
Values joined by “and” are separate entries in the source; they are usually repeats but may differ in a detail not shown here. Equal values may be shown once. Read-outs that look alike come from different tables or passages of the source.

Legend:
[1] = test system: soybean plants; assay: Copper injury on soybeans; type: in vivo; conditions: 1000 ppm copper sulfate foliar spray alone; soybean V1-2; 5 days after treatment
Excerpt: Plants are sensitive to heavy metal toxicity. Heavy metals are present in the environment or sometimes applied to plants for pest control. Symptoms of plant injury following treatment with a heavy metal compound, for example, a compound containing copper, are necrotic leaf spotting and flecking with more severe injury resulting in larger reddish brown spots, […] necrosis and/or necrotic puckered leaves.

[2] = test system: cotton plants; assay: Paraquat (Gramoxone) oxidative stress injury in cotton; type: in vivo; conditions: 2 DAT, DCSA (if given) 1 lb/Acre 24 hours before
Procedure: Four different cotton cultivars as indicated in Table 3 were grown in 4-inch pots for two weeks. These cotton plants were either sprayed with DCSA (BASF) at the 1 lb/A rate, or unsprayed (no DCSA application, as control). Experimental plants (treated with DCSA and untreated) were sprayed with Paraquat (Gramoxone®; Syngenta) at 30 gm/ha, 70 gm/ha, and 100 gm/ha rates, 24 hours after the application of DCSA, to simulate oxidative stress. […] The same experiment was repeated at two different growth stages of cotton (2 nodes stage and 5 nodes stage).

[3] = test system: soybean plants; conditions: for % injury: N3001 non-transgenic soybean, 4 DAT, ANOVA mean; for % injury at 5 DAT Paraquat alone control 100 g ae/ha: paraquat alone 100 g ae/ha
Procedure: For this example, the plants were grown as described in the above example. Transgenic and non transgenic soybean plants carrying the DMO gene in their genome were either treated with Paraquat (Gramoxone®; Syngenta) to create oxidative stress or with dicamba followed by Paraquat at V3 stage. The dicamba rate was 1 lb/Acre or 1120 g ae/ha. […] Plants were then evaluated for paraquat injury by visually assessing injury at a particular day after treatment (DAT) for injury on a scale of 0 to 100 percent relative to untreated control plants, with zero representing “no” injury and 100% representing “complete” injury or death. Data were collected and analyzed using suitable statistical methods.
In another experiment, the effect of externally applied DCSA was tested for its benefit in protecting soybean plants from oxidative stress injury caused by Paraquat. Different amounts of DCSA were applied 24 hrs before applying Paraquat to test any correlation between the amount of DCSA applied and the extent of protection obtained from oxidative stress measured in terms of reduction in % injury as described above. Different levels of dicamba were also applied separately to test the same hypothesis.

[4] = test system: haploid seeds of corn genotype 01DKD2; assay: Haploid corn seed pretreatment before colchicine doubling; type: in vivo; conditions: seeds imbibed 24 hours before 0.0625% colchicine; for Doubling efficiency: water 5; for 10 inch pot survival: water 53; for Percent Pollination: water 81; for Percent germination: water 90
Procedure: The use of these chemicals during the doubling process is toxic and stressful to the treated plant or seed. […] To determine quantify the effect of acetyl salicylic acid (ASA) and salicylic acid (SA) on plant health of haploid plants subjected to colchicine treatments, haploid seeds of corn genotype 01DKD2 were treated with 100-500 microMolar (μM) of DCSA, ASA, or SA or combinations thereof by imbibing the seeds in a solution of the compound for 24 hours before colchicine treatment of the seeds. A solution of 0.0625% colchicine (Sigma Aldrich, St. Louis, Mo. Cat#C3915) and 1.5% DMSO (Sigma Aldrich, St. Louis, Mo. Cat#D8779) was used to treat the seeds and the seeds incubated in the solution at 25° C. for 5 days in the dark. The germination rate, survival rate of the treated plants, fertility, and doubling rate were measured.

[5] = test system: Verticillium (isolate DPL); assay: Verticillium wilt protection in cotton, isolate DPL; type: in vivo, Verticillium dahliae; conditions: cotton ST6611, DCSA 1 lb/A, glyphosate 0.75 lb/A, 24 hours before inoculation
Excerpt: (§1) DCSA was unexpectedly found to provide protection to cotton plants against Verticillium dahliae, causal agent of cotton wilt disease (Table 6). Cotton plants of the variety ST6611, BOLLGARD 2, ROUNDUP READY FLEX, were inoculated with a moderate isolate (DPL) or a virulent isolate (King) of Verticillium by a seedling dipping method. Seedlings at the first true leaf stage were taken out from the pots, one inch of roots were cut off, seedlings were dipped in a spore slurry for one minute, and then transplanted back in the pots. These strains were isolated and provided by Dr. Terry Wheeler (Texas A&M University, TX USA). DCSA was applied at the rate of 1 lb/A and glyphosate (ROUNDUP WEATHERMAX, Monsanto Company, St. Louis, Mo.) at the rate of 0.75 lb/A 24 hours before inoculation. Protection against Verticillium was measured on a disease severity scale of 1-9:1 being healthy and 9 being dead because of disease, and also was measured as the number of plants that survived out of 10 inoculated plants.

[6] = test system: Verticillium (isolate King); assay: Verticillium wilt protection in cotton, isolate King; type: in vivo, Verticillium dahliae; conditions: cotton ST6611, DCSA 1 lb/A, glyphosate 0.75 lb/A, 24 hours before inoculation
Excerpt: as §1

[7] = test system: DMOxRR2Y soybean stack; assay: 2,4-D postemergence injury on DMOxRR2Y soybean; type: in vivo; conditions: V3, 3, 30, 60, 120 and 280 g ae/ha, all rates, 20 days after treatment
Excerpt: A rate titration of 2,4-D (2,4-D amine, Helena Chemical Co., Memphis, Tenn.) was applied as postemergence (POST) treatment at V3 growth state of breeding stack of DMO soybean and RR2Y (RR2Y is MON89788 event, U.S. application Ser. No. 11/441,914) transgenic soybean. 2,4-D was applied as a postemergence (POST) treatment (V3) at 5 application rates on DMOxRR2Y soybean stack and compared for total crop injury across all application rates. The POST herbicide application rates used for this trial were 3 g ae/ha (acid equivalent/hectare), 30 g ae/ha, 60 g ae/ha, 120 g ae/ha and 280 g ae/ha of 2,4-D. The treated plants were rated for 2,4-D symptoms 20 days after treatment.

| Compound | Doubling efficiency ([4]; 100 μM (each)) | 10 inch pot survival ([4]; 100 μM (each)) | Percent Pollination ([4]; 100 μM (each)) | Percent germination ([4]; 100 μM (each)) | Doubling efficiency ([4]; 250 μM (each)) | 10 inch pot survival ([4]; 250 μM (each)) | Percent Pollination ([4]; 250 μM (each)) | Percent germination ([4]; 250 μM (each)) | Doubling efficiency ([4]; 500 μM (each)) | 10 inch pot survival ([4]; 500 μM (each)) | Percent Pollination ([4]; 500 μM (each)) | Percent germination ([4]; 500 μM (each)) | other results |
| --- | --- | --- | --- | --- | --- | --- | --- | --- | --- | --- | --- | --- | --- |
| O=S(=O)([O-])[O-].[Cu+2] [Cu, copper sulfate] |  |  |  |  |  |  |  |  |  |  |  |  | Percent injury [1]: 45% and 45.0a Percent |
| C[n+]1ccc(-c2cc[n+](C)cc2)cc1 [Paraquat] |  |  |  |  |  |  |  |  |  |  |  |  | Percentage injury ([2]; cotton ST3273B2RF, Gramoxone 30 g a.i./ha): 35%; Percentage injury ([2]; cotton ST3273B2RF, Gramoxone 70 g a.i./ha): 50%; Percentage injury ([2]; cotton ST3273B2RF, Gramoxone 100 g a.i./ha): 50%; Percentage injury ([2]; cotton ST4575BR, Gramoxone 30 g a.i./ha): 37.5%; Percentage injury ([2]; cotton ST4575BR, Gramoxone 70 g a.i./ha): 42.5%; Percentage injury ([2]; cotton ST4575BR, Gramoxone 100 g a.i./ha): 65%; Percentage injury ([2]; cotton ST4646B2RF, Gramoxone 30 g a.i./ha): 31.5%; Percentage injury ([2]; cotton ST4646B2RF, Gramoxone 70 g a.i./ha): 42.5%; Percentage injury ([2]; cotton ST4646B2RF, Gramoxone 100 g a.i./ha): 70%; Percentage injury ([2]; cotton ST6622RF, Gramoxone 30 g a.i./ha): 42.5%; Percentage injury ([2]; cotton ST6622RF, Gramoxone 70 g a.i./ha): 50%; Percentage injury ([2]; cotton ST6622RF, Gramoxone 100 g a.i./ha): 70%; % injury ([3]; paraquat 30 g ae/ha at V-3): 32.5%; % injury ([3]; paraquat 70 g ae/ha at V-3): 50.8%; % injury ([3]; paraquat 200 g ae/ha at V-3): 75%; injury rate ([3]; transgenic plants contacted with Paraquat alone (Table 2)): about 75%; % injury at 5 DAT Paraquat alone control 100 g ae/ha ([3]; transgenic soybean event 462-1-21): 75.83%; % injury at 5 DAT Paraquat alone control 100 g ae/ha ([3]; transgenic soybean event 469-13-19): 77.50% |
| O=C(O)c1ccccc1O [SA, salicylic acid] | 2 | 48 | 83% | 80% | 3 | 58 | 85% | 85% | 3 | 77 | 89% | 85% |  |
| CC(=O)Oc1ccccc1C(=O)O [ASA, acetyl salicylic acid] | 0 | 62 | 86% | 87% | 8 | 60 | 78% | 85% | 5 | 35 | 71% | 68% |  |
| O=C(O)CNCP(=O)(O)O [Glyphosate, N-phosphonomethylglycine, reference compound] |  |  |  |  |  |  |  |  |  |  |  |  | Severity rating (1-9) ([5]; 1 healthy, 9 dead, inoculated check 5): 2; Plant survival rating (out of 10) ([5]; inoculated check 8): 10; Severity rating (1-9) ([6]; 1 healthy, 9 dead, inoculated check 9): 3.5; Plant survival rating (out of 10) ([6]; inoculated check 0): 10 |
| CNC.O=C(O)COc1ccc(Cl)cc1Cl [2,4-D] |  |  |  |  |  |  |  |  |  |  |  |  | POST 2,4-D injury compared to treated non-transgenic control A3525 [7]: significantly (ANOVA test) lower |
